How the values were obtained:
Assay type in all cases: functional
Mus musculus [1] = assay: Analgesic activity in ICR mouse assessed as pain threshold variation at 25 umol/kg, po administered as single dose measured after 30 mins by tail flick test relative to control
Mus musculus [2] = assay: Analgesic activity in ICR mouse assessed as pain threshold variation at 25 umol/kg, po administered as single dose measured after 60 mins by tail flick test relative to control
Mus musculus [3] = assay: Analgesic activity in ICR mouse assessed as pain threshold variation at 25 umol/kg, po administered as single dose measured after 90 mins by tail flick test relative to control
Mus musculus [4] = assay: Analgesic activity in ICR mouse assessed as pain threshold variation at 25 umol/kg, po administered as single dose measured after 120 mins by tail flick test relative to control
Mus musculus [5] = assay: Analgesic activity in ICR mouse assessed as pain threshold variation at 25 umol/kg, po administered as single dose measured after 150 mins by tail flick test relative to control
Mus musculus [6] = assay: Analgesic activity in ICR mouse assessed as pain threshold variation at 25 umol/kg, po administered as single dose measured after 180 mins by tail flick test relative to control

Structure (SMILES)	Activity (Mus musculus [1]) [%]	Activity (Mus musculus [2]) [%]	Activity (Mus musculus [3]) [%]	Activity (Mus musculus [4]) [%]	Activity (Mus musculus [5]) [%]	Activity (Mus musculus [6]) [%]
O=C(OCc1ccccc1)[C@@H]1CCCN1C(=O)CN(c1nc(Cl)nc2[nH]cnc12)C1CC1	33.18	34.37	43.28	38.35	31.09	17.63
NC(=O)C[C@H](NC(=O)CN(c1nc(Cl)nc2[nH]cnc12)C1CC1)C(=O)OCc1ccccc1	24.41	36.36	32.27	15.13	13.49	5.3
C[C@H](NC(=O)CN(c1nc(Cl)nc2[nH]cnc12)C1CC1)C(=O)OCc1ccccc1	41.23	64.29	44.16	36.13	23	15.09
CC(C)[C@H](NC(=O)CN(c1ncnc2c1ncn2C1CCCCO1)C1CC1)C(=O)OCc1ccccc1 (some centres undefined)	21.83	34.85	30.14	25.79	21.08	5.65
CC[C@H](C)[C@H](NC(=O)CN(c1nc(Cl)nc2[nH]cnc12)C1CC1)C(=O)OCc1ccccc1	41.39	40.63	36.28	21.97	6.9	3.38
O=C(O)CC[C@H](NC(=O)CN(c1nc(Cl)nc2[nH]cnc12)C1CC1)C(=O)O	26.81	33.25	44.7	30.08	29.46	10.05
N=C(N)NCCC[C@H](NC(=O)CN(c1ncnc2c1ncn2C1CCCCO1)C1CC1)C(=O)OCc1ccccc1 (some centres undefined)	34.27	52.35	61.58	38.16	19.6	7.97
O=C(CN(c1ncnc2c1ncn2C1CCCCO1)C1CC1)N[C@@H](Cc1ccccc1)C(=O)OCc1ccccc1 (some centres undefined)	39.2	45.54	37.73	26.29	3.49	1.79
CCOC(=O)CN(c1nc(Cl)nc2c1ncn2C1CCCCO1)C1CC1 (centres undefined)	9.92	22.64	13.04	14.91	11.85	5.33
NC(=O)CC[C@H](NC(=O)CN(c1nc(Cl)nc2[nH]cnc12)C1CC1)C(=O)O	33.11	38.4	41.1	17.75	11.38	9.07
NC(=O)CC[C@H](NC(=O)CN(c1nc(Cl)nc2[nH]cnc12)C1CC1)C(=O)OCc1ccccc1	30.76	33.07	42.83	36.04	31.07	19.17
NC(=O)CC[C@H](NC(=O)CN(c1ncnc2c1ncn2C1CCCCO1)C1CC1)C(=O)OCc1ccccc1 (some centres undefined)	46.96	39.4	37.82	22.34	10.72	7.71
O=C(CN(c1nc(Cl)nc2[nH]cnc12)C1CC1)N[C@@H](Cc1c[nH]c2ccccc12)C(=O)OCc1ccccc1	30.67	42.24	40.71	21.51	10.71	7.78
O=C(CN(c1ncnc2c1ncn2C1CCCCO1)C1CC1)N[C@@H](Cc1cnc[nH]1)C(=O)OCc1ccccc1 (some centres undefined)	24.98	36.43	14.45	10.16	5.31	4.38
O=C(CN(c1nc(Cl)nc2[nH]cnc12)C1CC1)N[C@@H](Cc1ccccc1)C(=O)O	29.37	32.02	26.55	8.84	6.09	4.19
O=C(CN(c1nc(Cl)nc2[nH]cnc12)C1CC1)N[C@@H](Cc1ccc(O)cc1)C(=O)OCc1ccccc1	22.6	22	15.02	13.65	9.38	4.33
O=C(CN(c1nc(Cl)nc2[nH]cnc12)C1CC1)N[C@@H](Cc1ccccc1)C(=O)OCc1ccccc1	39.38	38.92	27.14	20.4	10.73	5.15

Structure (SMILES)	Activity (Mus musculus [1]) [%]	Activity (Mus musculus [2]) [%]	Activity (Mus musculus [3]) [%]	Activity (Mus musculus [4]) [%]	Activity (Mus musculus [5]) [%]	Activity (Mus musculus [6]) [%]
O=C(O)[C@@H]1CCCN1C(=O)CN(c1nc(Cl)nc2[nH]cnc12)C1CC1	31.47	34.94	25.99	23.61	7.29	6.67
CC(C)[C@H](NC(=O)CN(c1nc(Cl)nc2[nH]cnc12)C1CC1)C(=O)O	31.15	38.79	30.28	17.06	7.86	3.04
O=C(CN(c1ncnc2c1ncn2C1CCCCO1)C1CC1)N[C@@H](Cc1c[nH]c2ccccc12)C(=O)OCc1ccccc1 (some centres undefined)	43.53	51.9	38.93	22.58	11.45	5.15
O=C(CN(c1nc(Cl)nc2[nH]cnc12)C1CC1)N[C@@H](CC(=O)OCc1ccccc1)C(=O)OCc1ccccc1	34.7	22.4	15.58	12.14	6.68	2.87
O=C(CN(c1nc(Cl)nc2[nH]cnc12)C1CC1)N[C@@H](CO)C(=O)O	38.65	39.76	43.9	39	18.83	12.32
O=C(CN(c1ncnc2c1ncn2C1CCCCO1)C1CC1)N[C@@H](Cc1ccc(O)cc1)C(=O)OCc1ccccc1 (some centres undefined)	20.53	35.82	36.45	17.44	8.71	5.02
CC(C)(C)OC(=O)NCCCC[C@H](NC(=O)CN(c1ncnc2c1ncn2C1CCCCO1)C1CC1)C(=O)OCc1ccccc1 (some centres undefined)	18.33	32.66	32.85	28.39	17.2	10.06
O=C(OCc1ccccc1)[C@@H]1CCCN1C(=O)CN(c1ncnc2c1ncn2C1CCCCO1)C1CC1 (some centres undefined)	32.25	36.73	23.31	17.49	7.85	6.63
CC[C@H](C)[C@H](NC(=O)CN(c1ncnc2c1ncn2C1CCCCO1)C1CC1)C(=O)OCc1ccccc1 (some centres undefined)	25.56	27.35	22.57	20.42	16.43	9.15
O=C(CN(c1nc(Cl)nc2[nH]cnc12)C1CC1)N[C@@H](CO)C(=O)OCc1ccccc1	31.88	34.17	34.53	34.5	27.88	11.5
O=C(CN(c1nc(Cl)nc2[nH]cnc12)C1CC1)N[C@@H](Cc1c[nH]c2ccccc12)C(=O)O	17.55	17.84	18.3	8.19	5.27	3.91
CC(C)C[C@H](NC(=O)CN(c1nc(Cl)nc2[nH]cnc12)C1CC1)C(=O)OCc1ccccc1	33.91	27.26	15.21	8.58	5.26	4.29
CC(C)C[C@H](NC(=O)CN(c1ncnc2c1ncn2C1CCCCO1)C1CC1)C(=O)OCc1ccccc1 (some centres undefined)	26.2	34.19	28.22	12.79	6.47	0.04
O=C(CN(c1ncnc2c1ncn2C1CCCCO1)C1CC1)N[C@@H](CCC(=O)OCc1ccccc1)C(=O)OCc1ccccc1 (some centres undefined)	32.61	34.74	25.2	20.71	14.14	10.93
NC(=O)C[C@H](NC(=O)CN(c1nc(Cl)nc2[nH]cnc12)C1CC1)C(=O)O	29.73	43.14	20.06	17.03	7.51	5.66
C[C@H](NC(=O)CN(c1ncnc2c1ncn2C1CCCCO1)C1CC1)C(=O)OCc1ccccc1 (some centres undefined)	55.91	53	32.06	25.3	6.01	5.96
C[C@@H](O)[C@H](NC(=O)CN(c1ncnc2c1ncn2C1CCCCO1)C1CC1)C(=O)OCc1ccccc1 (some centres undefined)	23.61	28.36	23.38	10.91	6.53	2.34

Reference: ChEMBL document CHEMBL1152546, “N-[2-chloro-9H-purin-6-yl]-N-cyclopropylglycylamino acids and derivatives: synthesis, evaluation as a class of novel analgesics, and 3D QSAR analysis” (2009)
